{"source": "patent US5229288A", "about": "“Cytotoxicity test method” (priority 1990, dated 1993)", "key": {"[1]": {"system": "fibroblasts derived from human skin", "assay": "shrinkage of detached cell sheet to spherical cell aggregate (cytotoxicity test method of the invention), phase contrast microscopy", "procedure": "(§1) N-Isopropylacrylamide monomer (here \"NIPAAm\", a product of Eastman Kodak Co.) 50 g was dissolved in 500 ml benzene. 2,2'-Azobisisobutyronitrile (here \"AIBN\") 0.2 g was used as the polymerization initiator. Polymerization was carried out at 60° C. for 12 hours in a stream of nitrogen gas with constant agitation. The polymer thus obtained was precipitated in benzene and after decantation the precipitates formed were dissolved in tetrahydrofuran and purified with ethyl ether. […] This mixed solution was poured on the bottom of a commercially available plastic culture dish (Falcon, 35 mm), and it was air-dried aseptically in a clean bench at about 10° C. […] Fibroblasts derived from human skin were suspended in Dulbecco's modified Eagle medium (\"DMEM\", a product of GIBCO, containing 10% (w/v) calf serum) (cell concentration in the suspension: about 2×10^5 cells/ml). Two milliliters of this cell suspension was incubated at 37° C., and then it was poured in the coated dish which was pre-incubated at 37° C. It was cultured at 37° C. for 3 days in an air/5 volume% CO2 gas incubator. After 3 days at which point the cultured cells covered the surface of the bottom of the dish completely, the dish was taken out from the 37° C. incubator and left to stand at 4° C. on ice. After the cell sheet was completely detached from the surface of the bottom of the dish, the old medium was discarded and the sheet was washed twice with fresh medium at 4° C. to remove the dissolved polymer and the collagen.\n(§2) During the shrinking process, the cell aggregate was examined at different times by a phase contrast microscope. Size (average values of longer diameter and shorter diameter) of the cell aggregate was measured, and % shrinkage which is a relative value considering the diameter of the cell sheet immediately after the detachment as 100% was calculated, and the results were plotted against time as shown in FIG. 1.\n(§3) After a cell sheet was detached and transferred onto a hydrophobic dish in the same manner as in the Control Example, cycloheximide (here \"CH\") was added to the culture medium for the cell sheet to bring the concentration to 0.3 and 3μg/ml of medium, respectively. The shrinkage process of the detached cell sheet was examined by the phase contrast microscopy while the cell sheet was cultured in the culture medium containing CH in the hydrophobic dish. […] At the second day after detachment, as shown in FIG. 2A by an arrow sign, the added CH was completely removed by washing the cell aggregate with fresh culture medium and then transferring it into the vessel containing fresh culture medium.\n(§4) Twelve hours before a cell sheet was detached from the cell culture substrate and transferred onto a hydrophobic dish in the same manner as in Control Example, actinomycin D (here \"AD\") was added to the culture medium to bring the concentration to 0.003 and 0.03 μg/ml of medium, respectively. Then the shrinkage process of the detached cell sheet was examined by phase contrast microscopy while the detached cell sheet was cultured in the culture medium containing 0.003 and 0.03 μg/ml (medium) of AD, respectively, in the hydrophobic dish."}, "in vitro": {"assay": "in vitro", "conditions": "human, skin fibroblasts", "procedure": "as §1, §2, §3, §4"}, "[2]": {"system": "fibroblasts derived from human skin", "assay": "conventional monolayer culture on plastic tissue culture dish, morphological change under phase contrast microscope (Comparative Example)", "assay_type": "cell-based", "conditions": "10 μg/ml, monolayer cultured for 3 days before addition", "procedure": "(§5) The fibroblasts derived from human skin as used in Example 1 were cultured for 3 days on a plastic tissue culture dish (Falcon, 35 mm), and then cycloheximide and actinomycin D were added, respectively, in such an amount that the concentration of the medium would be 10 μg/ml, and the morphological change of the cells was examined under a phase contrast microscope. […] In contrast, the concentration for the detection of cytotoxicity by the conventional monolayer culture such as shown in this Comparative Example was higher than 10 μg/ml."}, "[3]": {"assay": "conventional monolayer culture on plastic tissue culture dish, morphological change under phase contrast microscope (Comparative Example)", "assay_type": "cell-based, human", "conditions": "human, skin fibroblasts; conventional monolayer culture; read-out: concentration for the detection of cytotoxicity by conventional monolayer culture", "procedure": "as §5"}, "[4]": {"conditions": "AD more than 0.03 μg/ml, added twelve hours before detachment, FIG. 2B"}, "[5]": {"conditions": "CH more than 3 μg/ml, added after detachment and transfer, FIG. 2A"}}, "note": "Numbered stars: 1 amine (or outer) side, 2 acyl side, 3 side chain; on linkers, the order of the positions; unused ones are H or OH. Bridge positions count the residues as written; N and C are the ends. Square brackets hold non-standard residues; d marks the D form. Peptide text beside a SMILES is read from it. I, II: the chains in the order shown. Actinocin(9to1) = Cc1c2oc3c(C)ccc(C(=O)[*:1])c3nc-2c(C(=O)[*:2])c(N)c1=O; NMeV = CN[C@H](C(=O)O)C(C)C; Sar = CNCC(=O)O"}
{"smiles": "Cc1c2oc3c(C)ccc(C(=O)N[C@@H]4C(=O)N[C@H](C(C)C)C(=O)N5CCC[C@H]5C(=O)N(C)CC(=O)N(C)[C@@H](C(C)C)C(=O)O[C@@H]4C)c3nc-2c(C(=O)N[C@@H]2C(=O)N[C@H](C(C)C)C(=O)N3CCC[C@H]3C(=O)N(C)CC(=O)N(C)[C@@H](C(C)C)C(=O)O[C@@H]2C)c(N)c1=O", "note": "[AD, actinomycin D] (I: T[dV]P[Sar][NMeV] / II: T[dV]P[Sar][NMeV]; ester I:1-I:C, II:1-II:C; linker I:N-II:N via Actinocin(9to1))", "values": [{"measurement": "formation of spherical cell aggregate", "setting": "[1]; [4]", "value": "no formation of any spherical cell aggregate was observed"}, {"measurement": "shrinkage behavior of phase II (0.5 th to second day after detachment)", "setting": "[1]; [4]", "value": "significantly interrupted"}, {"measurement": "shrinkage after removal of AD (reversibility)", "setting": "[1]; AD removed by washing at second day after detachment, FIG. 2B", "value": "the shrinkage started again"}, {"measurement": "concentration of AD which inhibits phase II relative to that of CH", "setting": "[1]; ratio AD to CH", "value": "about 1/100"}, {"measurement": "MCC", "setting": "in vitro", "value": 0.03, "unit": "µg/mL"}, {"measurement": "morphological change of the cells", "setting": "[2]", "value": "No morphological change was observed at all"}, {"measurement": "MCC", "setting": "[3]", "value": "> 10", "unit": "µg/mL"}]}
{"smiles": "C[C@@H]1C[C@@H]([C@H](O)CC2CC(=O)NC(=O)C2)C(=O)[C@@H](C)C1", "note": "[CH, cycloheximide]", "values": [{"measurement": "formation of spherical cell aggregate", "setting": "[1]; [5]", "value": "no formation of any spherical cell aggregate was observed"}, {"measurement": "shrinkage behavior of phase II (0.5 th to second day after detachment)", "setting": "[1]; [5]", "value": "completely interrupted"}, {"measurement": "shrinkage after removal of CH (reversibility)", "setting": "[1]; CH removed by washing at second day after detachment, FIG. 2A", "value": "the shrinkage started again"}, {"measurement": "MCC", "setting": "in vitro", "value": 3, "unit": "µg/mL"}, {"measurement": "morphological change of the cells", "setting": "[2]", "value": "No morphological change was observed at all"}, {"measurement": "MCC", "setting": "[3]", "value": "> 10", "unit": "µg/mL"}]}
